Assay results reported in the METLIN SMRT retention time set (Domingo-Almenara et al. 2019).

Assay: gradient 5% acetonitrile 3 min, to 50% in 2 min, to 85% in 15 min, held 3 min, 100 µL/min
Settings: column: Zorbax Extend-C18 2.1 x 50 mm; eluents: water / acetonitrile, 0.1% formic acid
In short: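 In both positive and negative ionization mode, a quadrupole time-of-flight mass spectrometer coupled to HPLC analyzed pure standards run in mixtures of ~100 molecules. The Zorbax Extend-C18 column (2.1 × 50 mm, 1.8 μm) was operated at 100 μL/min with water and acetonitrile, each containing 0.1% formic acid. The dead volume was 40 μL and the dwell volume 900 μL. Retention time came from adduct peaks that were computationally picked and individually inspected by hand.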

Q: For `O=C(CN1CCc2nc(NC(=O)C3CC3)sc2C1)Nc1ccccc1C(F)(F)F`, which RP-LC retention time is on record?
A: 620 s

Q: With `COc1ccccc1N1CCN(c2cc(SCC(=O)Nc3cccc(SC)c3)ncn2)CC1` as the compound, how does the RP-LC retention time read?
A: 1020 s

Q: For `Cc1ccc2c(c1)N(Cc1nc(-c3ccc(C)c(C)c3)no1)C(=O)CO2`, which RP-LC retention time is on record?
A: 1160 s

Q: With `COC(=O)c1c(C)[nH]c(C(=O)N2CCCC(C(=O)NCc3ccc(C)cc3)C2)c1C` (stereo unspecified) as the compound, how does the RP-LC retention time read?
A: 754 s

Q: Which RP-LC retention time does the source give for `CCS(=O)(=O)N1CCc2c(c(CN(C(=O)c3ccc(F)cc3)c3ccccc3)nn2C)C1` here?
A: 804 s

Q: Which RP-LC retention time does the source give for `O=C(c1cc2c(s1)CCCC2)N1CCCN(c2nnc3ccc(Cl)cn23)CC1` here?
A: 863 s

Q: With `CC(C)c1ccc(NC(=O)Cn2nc3c4ccc(Cl)cc4ncn3c2=O)cc1` as the compound, how does the RP-LC retention time read?
A: 671 s

Q: For `CC(C)N1C(=O)C(C)(C(=O)NCc2cccc(Br)c2)Oc2cccnc21` (stereo unspecified), which RP-LC retention time is on record?
A: 1030 s

Q: For `CCCCNC(=O)CCC1CCN(c2cc(NC3CC3)ncn2)CC1`, which RP-LC retention time is on record?
A: 629 s

Q: For `CC(=O)c1cccc(NC(=O)Cn2cncc(C)c2=O)c1`, which RP-LC retention time is on record?
A: 598 s

Q: For `CC(C)CCNC(=O)C1CCN(c2cncnc2N2CCN(C)CC2)CC1`, which RP-LC retention time is on record?
A: 561 s

Q: Which RP-LC retention time does the source give for `CN(Cc1nc(Cn2ccn3nc(-c4ccc(F)cc4)cc3c2=O)no1)C1CCCCC1` here?
A: 704 s

Q: Which RP-LC retention time does the source give for `CCCN(CC1CCOC1)C(=O)Nc1ccccc1CC` (stereo unspecified) here?
A: 823 s

Q: For `O=c1n(Cc2ccc(F)cc2)nc2c(S(=O)(=O)N3CCCCCC3)cccn12`, which RP-LC retention time is on record?
A: 956 s

Q: Which RP-LC retention time does the source give for `CCc1ccc(Oc2cc(N3CCC(C(=O)NCCc4ccccc4)CC3)ncn2)cc1` here?
A: 998 s

Q: For `CCCNC(=O)c1cn(CCC)nc1S(=O)(=O)N1CCN(c2ccccc2OCC)CC1`, which RP-LC retention time is on record?
A: 1080 s

Q: For `O=C(CCn1nnc2cc(-c3noc(Cc4ccc(Cl)cc4)n3)ccc21)N1CCCC1`, which RP-LC retention time is on record?
A: 921 s

Q: For `COc1cc(C2CC(=O)c3cnc(N4CCN(CCO)CC4)nc3C2)cc(OC)c1OC` (stereo unspecified), which RP-LC retention time is on record?
A: 559 s

Q: With `CN1C(=O)c2cccn2CC1CNC(=O)NCc1ccccc1` (stereo unspecified) as the compound, how does the RP-LC retention time read?
A: 646 s

Q: With `CCc1nnc(-c2ccc3ccn(CC(=O)NCc4cc(OC)ccc4OC)c3c2)o1` as the compound, how does the RP-LC retention time read?
A: 793 s

Q: For `Cn1nc2c(c1NC(=O)C1CCCN1S(=O)(=O)c1ccc(F)cc1)CCC2` (stereo unspecified), which RP-LC retention time is on record?
A: 700 s

Q: For `O=C1Nc2ccccc2OC1C(=O)N1CCN(c2ccc(Cl)cc2)CC1` (stereo unspecified), which RP-LC retention time is on record?
A: 889 s

Q: Which RP-LC retention time does the source give for `CC(C)Cn1cc(S(=O)(=O)Nc2ccccc2F)c2cccnc21` here?
A: 926 s

Q: With `O=C(NCCc1c[nH]c2ccc(Cl)cc12)c1cn2cc(Cl)ccc2n1` as the compound, how does the RP-LC retention time read?
A: 886 s

Q: Which RP-LC retention time does the source give for `CN(C)C(=O)c1cc(N(C)C)nc2ccc(F)cc12` here?
A: 575 s

Q: For `Cc1noc(-c2ccc(OC3CN(C(=O)CC4CCCC4)C3)cc2)n1`, which RP-LC retention time is on record?
A: 906 s

Q: For `O=C1CCCc2cc(S(=O)(=O)N3CCN(c4cccc(C(F)(F)F)c4)CC3)ccc2N1`, which RP-LC retention time is on record?
A: 980 s

Q: For `COc1ccc(-c2cn3c(CC(=O)Nc4ccc(F)cc4Cl)csc3n2)cc1OC`, which RP-LC retention time is on record?
A: 766 s

Q: With `Cc1ccccc1CNC(=O)CCc1conc1-c1ccc(F)cc1` as the compound, how does the RP-LC retention time read?
A: 922 s

Q: For `CC(NC(=O)C1CCN(c2cnc3nccnc3c2)CC1)c1ccccc1` (stereo unspecified), which RP-LC retention time is on record?
A: 705 s

Q: With `COc1ccc(C2=Nc3ccccc3N(CC(=O)Nc3cc(OC)ccc3OC)C(=O)C2)cc1` as the compound, how does the RP-LC retention time read?
A: 1020 s

Q: For `CCc1nc2cc(-c3noc(/C=C/c4ccc(C)o4)n3)ccc2o1`, which RP-LC retention time is on record?
A: 1180 s

Q: With `Cc1cc(=O)n(CC(=O)Nc2ccccc2Cl)c(N2CCCCC2)n1` as the compound, how does the RP-LC retention time read?
A: 718 s

Q: For `COc1ccc(-c2noc(Cn3ccn(-c4c(C)cccc4C)c(=O)c3=O)n2)cc1OC`, which RP-LC retention time is on record?
A: 797 s

Q: With `COc1ccc(OC)c(-c2cc(C(=O)NCCn3cnc(-c4ccccc4)cc3=O)[nH]n2)c1` as the compound, how does the RP-LC retention time read?
A: 736 s

Q: Which RP-LC retention time does the source give for `CC(C)c1noc(-c2ccnc(-n3cnc(C(=O)NC(C)c4ccccc4)c3)c2)n1` (stereo unspecified) here?
A: 1000 s
